This passage reports TGI results from PubChem BioAssay (NCI).

Test systems include HS 578T breast; TK-10 renal; RPMI-8226 leukemia; HOP-62 NSCLC; SNB-19 CNS; NCI-H23 lung; MALME-3M melanoma; A498 renal; BT-549 breast; DU-145 prostate; LOX IMVI melanoma; SK-MEL-2 melanoma; SK-MEL-28 melanoma; HCT-116 colon; MDA-MB-231 breast; HL-60(TB) leukemia; ACHN renal.
What all share (experiment): inhibition of tumour cell growth, NCI panel, 48 h

The structures appear in SMILES notation.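 Grown in 96-well plates, cells were treated for 48 hours with each compound at five concentrations. Insufficient inhibition: endpoint recorded as highest concentration tested. TGI is the concentration that stops growth completely.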

For the molecule `COC(=O)[C@H](CCSC)NC(=O)N[C@H](C)c1ccccc1`, the TGI in the test with HS 578T breast, with TK-10 renal, in the test on RPMI-8226 leukemia, with HOP-62 NSCLC, in the test on SNB-19 CNS and with NCI-H23 lung was over 100 µM throughout. Moreover, the TGI with MALME-3M melanoma, with A498 renal, in the test with BT-549 breast, in the test on DU-145 prostate, in the test on LOX IMVI melanoma and with SK-MEL-2 melanoma was over 100 µM throughout. The TGI in the test on SK-MEL-28 melanoma, with HCT-116 colon, with MDA-MB-231 breast, with HL-60(TB) leukemia and in the test on ACHN renal was over 100 µM each time.

On to `O=[N+]([O-])c1nccn1CCCNc1ccnc2cc(Cl)ccc12`, for which the TGI is over 100 µM in the test on HS 578T breast; over 11.7 µM in the test on TK-10 renal; over 100 µM in the test on RPMI-8226 leukemia; over 92.4 µM with HOP-62 NSCLC; over 64.2 µM in the test with SNB-19 CNS; over 100 µM with NCI-H23 lung. The TGI in the test on MALME-3M melanoma is over 57.3 µM; in the test with A498 renal it was over 70.9 µM; in the test with BT-549 breast it was over 100 µM; with DU-145 prostate it was over 100 µM; in the test on LOX IMVI melanoma, over 100 µM; in the test on SK-MEL-2 melanoma, over 95.7 µM. The TGI in the test on SK-MEL-28 melanoma is over 100 µM; in the test with HCT-116 colon, over 100 µM; in the test with MDA-MB-231 breast, over 100 µM; in the test with HL-60(TB) leukemia, over 100 µM; in the test on ACHN renal, over 17.8 µM.
